Data from the NIST ThermoML archive (doi:10.1021/je800110r).

Settings: Liquid, Vibrating tube method

CCCCCCCCCC [decane]
Settings	mass density [kg/m3]
313.15 K, 25586 kPa	734.5
313.15 K, 25902 kPa	734.7
313.15 K, 25935 kPa	734.7
313.15 K, 25969 kPa	734.6
313.15 K, 25993 kPa	734.9
313.15 K, 26027 kPa	734.7
313.15 K, 26065 kPa	734.7
313.15 K, 26104 kPa	734.9
313.15 K, 26144 kPa	735
313.15 K, 26173 kPa	734.9
313.15 K, 26208 kPa	734.9
313.15 K, 26233 kPa	734.9
313.15 K, 26272 kPa	735
313.15 K, 26306 kPa	735
313.15 K, 26341 kPa	735
313.15 K, 26370 kPa	735.1
313.15 K, 26410 kPa	735
313.15 K, 26440 kPa	735.2
313.15 K, 26475 kPa	735.2
313.15 K, 26510 kPa	735.1
313.15 K, 26557 kPa	735.1
313.15 K, 26582 kPa	735.1
313.15 K, 26614 kPa	735.3
313.15 K, 26655 kPa	735.3
313.15 K, 26690 kPa	735.2
313.15 K, 26722 kPa	735.3
313.15 K, 26763 kPa	735.3
313.15 K, 26799 kPa	735.4
313.15 K, 26842 kPa	735.3
313.15 K, 26874 kPa	735.3
313.15 K, 26911 kPa	735.5
313.15 K, 26941 kPa	735.5
313.15 K, 26969 kPa	735.5
313.15 K, 26998 kPa	735.6
313.15 K, 27035 kPa	735.4
313.15 K, 27058 kPa	735.5
313.15 K, 27874 kPa	736
313.15 K, 27972 kPa	736
313.15 K, 28011 kPa	736.2
313.15 K, 28036 kPa	736
313.15 K, 28071 kPa	736.1
313.15 K, 28101 kPa	736.2
313.15 K, 28131 kPa	736.2
313.15 K, 28162 kPa	736.3
313.15 K, 28202 kPa	736.3
313.15 K, 28237 kPa	736.3
313.15 K, 28272 kPa	736.3
313.15 K, 28297 kPa	736.3
313.15 K, 28327 kPa	736.3
313.15 K, 28372 kPa	736.4
313.15 K, 28403 kPa	736.4
313.15 K, 28449 kPa	736.5
313.15 K, 28480 kPa	736.5
313.15 K, 28515 kPa	736.4
313.15 K, 28542 kPa	736.5
313.15 K, 28578 kPa	736.5
313.15 K, 28619 kPa	736.5
313.15 K, 28645 kPa	736.5
313.15 K, 28692 kPa	736.6
313.15 K, 28723 kPa	736.7
313.15 K, 28750 kPa	736.7
313.15 K, 28791 kPa	736.7
313.15 K, 28828 kPa	736.6
313.15 K, 28860 kPa	736.8
313.15 K, 28902 kPa	736.7
313.15 K, 28945 kPa	736.8
313.15 K, 28971 kPa	736.8
313.15 K, 29019 kPa	736.8
313.15 K, 29061 kPa	736.9
313.15 K, 29168 kPa	737
313.15 K, 30647 kPa	737.9
313.15 K, 30676 kPa	738
313.15 K, 30710 kPa	737.9
313.15 K, 30738 kPa	738
313.15 K, 30777 kPa	738
313.15 K, 30816 kPa	738.1
313.15 K, 30856 kPa	738.1
313.15 K, 30889 kPa	738.1
313.15 K, 30929 kPa	738
313.15 K, 30974 kPa	738.1
313.15 K, 31089 kPa	738.2
313.15 K, 31432 kPa	738.4
313.15 K, 31467 kPa	738.4
313.15 K, 31515 kPa	738.4
313.15 K, 31562 kPa	738.5
313.15 K, 31610 kPa	738.4
313.15 K, 31646 kPa	738.6
313.15 K, 31694 kPa	738.6
313.15 K, 31736 kPa	738.6
313.15 K, 31766 kPa	738.4
313.15 K, 31815 kPa	738.6
313.15 K, 31856 kPa	738.6
313.15 K, 31901 kPa	738.7
313.15 K, 31947 kPa	738.7
313.15 K, 31981 kPa	738.7
313.15 K, 32023 kPa	738.8
313.15 K, 32070 kPa	738.8
313.15 K, 32100 kPa	738.9
313.15 K, 32135 kPa	738.9
313.15 K, 32176 kPa	738.9
313.15 K, 32213 kPa	738.9
313.15 K, 32253 kPa	738.9
313.15 K, 32294 kPa	738.9
313.15 K, 32345 kPa	739
313.15 K, 32379 kPa	739
313.15 K, 32413 kPa	739
313.15 K, 32459 kPa	739.1
313.15 K, 32491 kPa	739.1
313.15 K, 32528 kPa	739.1
313.15 K, 32561 kPa	739.1
313.15 K, 32592 kPa	739.3
313.15 K, 32633 kPa	739.1
313.15 K, 32666 kPa	739.2
313.15 K, 32704 kPa	739.3
313.15 K, 32737 kPa	739.3
313.15 K, 32770 kPa	739.3
313.16 K, 339 kPa	714.8
313.16 K, 365 kPa	714.9
313.16 K, 391 kPa	715
313.16 K, 423 kPa	715
313.16 K, 450 kPa	714.9
313.16 K, 478 kPa	715
313.16 K, 508 kPa	715
313.16 K, 548 kPa	715.1
313.16 K, 579 kPa	715.1
313.16 K, 595 kPa	715.2
313.16 K, 607 kPa	715.1
313.16 K, 620 kPa	715
313.16 K, 631 kPa	715.1
313.16 K, 651 kPa	715.2
313.16 K, 661 kPa	715.1
313.16 K, 673 kPa	715.3
313.16 K, 686 kPa	715.2
313.16 K, 699 kPa	715.2
313.16 K, 719 kPa	715.2
313.16 K, 733 kPa	715.2
